Measured values: patent US20220041665A1, “POLYNUCLEOTIDE AND USES THEREOF” (Helsingin yliopisto, priority 2019, published 2022)

What was measured:
Assay type in all cases: cell-based, human
[1] = test system: A549 cells with tagged EGFR; test: EGF uptake in A549 cells with tagged EGFR
Description: A549 cells were seeded at 0.4×10^5 cells per 4-well for 3 days. Medium was changed to fresh medium with or without 0.5 mM IAA for 1 h. Cells were washed twice with ice-cold serum free medium with 1% BSA and 0.2 ml of 2 μg/ml Alexa Fluor™ 647 EGF complex (ThermoFisher, E35351) in serum free medium with 1% BSA was added. Cells were further incubated at 37° C. for 20 min before harvesting with trypsin. Samples were kept on ice before FACS analysis. Alexa Fluor™ 647 was excited with 640 nm laser and detected with 720/40 detector, analysing 20 000 cells per sample. Negative control samples were cells incubated in medium without EGF complex. Background subtracted mean fluorescence intensity was used for analysis.

[2] = test system: A431 cells with tagged DHC1; test: Analysis of cell division in A431 cells with tagged DHC1
Description: Cells were plated on μ-slide 8-well ibiTreat dishes at 0.1×10^5 cells per well 2 days before the experiment. On the experiment day, cells were loaded with 2 μM CellTracker™ Red CMTPX (Thermo, CAT #C34552) in complete medium for 15-30 min at 37° C. Medium was then changed to FluroBrite containing 10% FBS and incubated at 37° C. for 1-2 h before imaging to equilibrate the labelling. Cells were imaged with Nikon Eclipse Ti-E microscope equipped with 20× air objective, Nikon Perfect Focus System 3, Hamamatsu Flash 4.0 V2 scientific CMOS and Okolab stage top incubator system. Before recording, 6 fields for each of the 8 wells were selected with Celllracker™ Red fluorescence. IAA was then added at a final 0.5 mM concentration to IAA-treated cells, mixed well with pipetting, and time lapse imaging started immediately recording every 30 min for 16 h. Mitotic rounding cells were counted manually in the videos from 0.5 h to 6 h. Mitotic rounding cells without cell division were followed till 13 h.

seipin-mEGFP = test: FACS screen of auxin perceptive proteins and degrons (mean GFP intensity) in A431 cell pools; conditions: cells expressing AtAFB2 and seipin-mEGFP with degron insertion; 0 h, 1 h, 16 h IAA
Description: To search for an improved AID system to solve the issue, a pipeline was first established in human A431 cells to screen AID components (FIG. 2A). Various auxin perceptive proteins and degrons were selected for screening. Several TIR1 and AFB2 proteins from different plant species were tested, as well as degrons derived from AtIAA17 (SEQ ID NO: 3), these including amino acid (aa.) 65-132 (miniAID), aa. 62-109, aa. 71-114. All these degrons were included in the screen. […] These high affinity fragments were tested, assuming higher affinity might translate into more efficient inducible degradation. Degrons with KR dipeptide deletions were tested to see if they would have an effect on enhancing IAA binding affinity, IAA-inducible depletion or as part of a nuclear localization signal. […]
For FACS analysis, cells were seeded at 1:5 (for A431) or 1:3 (for A549) into 6-well plate in medium without selection on day 0. […] Cells were gated with SSC, FSC and trigger pulse width for singlets and 100 000 cells were analyzed for each sample. GFP was excited with 488 nm laser and detected with 530/40 detector; mCherry was excited with 561 nm lasers and detected with 615/20 detector. Data was analyzed with BD FACS Sortware. Background subtracted mean fluorescence intensity was used for analysis.

seipin = test: Depletion of endogenous seipin tagged with mAID-mEGFP in A431 cells expressing OsTIR1; conditions: cells expressing OsTIR1, no IAA
seipin, sequence (Q96G97+P93830 fused): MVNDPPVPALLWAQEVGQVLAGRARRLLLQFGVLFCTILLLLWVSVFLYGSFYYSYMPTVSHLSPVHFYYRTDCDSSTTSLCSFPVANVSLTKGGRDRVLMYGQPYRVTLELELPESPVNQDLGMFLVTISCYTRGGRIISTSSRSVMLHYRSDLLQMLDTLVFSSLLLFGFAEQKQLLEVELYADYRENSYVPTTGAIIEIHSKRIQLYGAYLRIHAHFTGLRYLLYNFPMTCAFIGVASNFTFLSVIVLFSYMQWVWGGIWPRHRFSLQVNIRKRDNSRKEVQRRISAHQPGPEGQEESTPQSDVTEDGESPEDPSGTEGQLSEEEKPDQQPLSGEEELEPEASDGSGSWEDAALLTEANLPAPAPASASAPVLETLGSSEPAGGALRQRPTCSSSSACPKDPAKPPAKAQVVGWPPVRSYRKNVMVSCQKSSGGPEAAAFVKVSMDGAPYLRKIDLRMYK
Text: Initially seipin, a conserved transmembrane protein in the endoplasmic reticulum (ER) involved in lipid droplet (LD) biogenesis, was targeted for degradation. To rapidly deplete seipin from human A431 cells, an AID system, composed of TIR1 derived from Oryza sativa (OsTIR1) and mAID degron of 65 amino acids corresponding to AAs 68-132 of AtIAA17 (SEQ ID NO: 3), referred herein to as miniAID, was first employed. To this end, the endogenous seipin was homozygously tagged with mAID-mEGFP.

[3] = control cells without auxin perceptive protein

For `O=C(O)Cc1c[nH]c2ccccc12` [IAA, indole-3-acetic acid], the “reduction of EGF uptake” value ([1]; EGFR-AtAFB2 cells, 1 h IAA treatment (0.5 mM)) was 75%, the “effect of IAA per se on EGF uptake” value [1, 3] was “did not affect” and the “fraction of mitotic rounding cells that completed cell division” value ([2]; DHC1-AtAFB2 cells, after IAA addition for 30 min (0.5 mM)) was 0%. The “effect of IAA per se on cell division” value [2, 3] was “did not affect”.
For “aa.82-101: minimal truncated AtIAA7 degron, aa. 82-101 of SEQ ID NO: 1 (QVVGWPPVRNYRKNMMTQQK; listed as Arabidopsis thaliana)”, the “auxin-inducible degradation of truncated AtIAA7 degron” value (seipin-mEGFP) was “similarly to miniIAA7”.
“miniAID: mAID degron of 65 amino acids corresponding to AAs 68-132 of AtIAA17 (SEQ ID NO: 3)” was tested, and the “degradation of tagged seipin without IAA addition” value (seipin) was “severely degraded”.
